Data as given in ChEMBL document CHEMBL1125969, “Design, synthesis and cytotoxic evaluation of keto-C-glycoside fatty acid conjugates” (Bioorg Med Chem Lett, 1991).
pIC50: −log10 of the molar value.

What follows are molecules tested on LFCl2A (assay: In vitro cytotoxicity against LFCl2A (rat hepatocarcinoma) cells.). Settings: not given.
Format: functional, cell-based
Work on `O=c1[nH]cc(F)c(=O)[nH]1` [FLUOROURACIL] yielded a pIC50 of 4.55.

Same assay, conditions: read-out: IC50
For `CCCC(=O)OC[C@H]1O[C@H](C2CCCC=C2C)C=CC1=O` (some centres undefined), the pIC50 was 6.46.
In the case of `CC/C=C\C/C=C\C/C=C\C/C=C\C/C=C\C/C=C\CCC(=O)OC[C@H]1O[C@H](CC2=CCCCC2)C=CC1=O`, the pIC50 was 7.30.
With `CC1=CCCCC1[C@H]1O[C@H](CO)C=CC1=O` (some centres undefined) the pIC50 was 5.46.
For `CCCCCCCC/C=C\CCCCCCCC(=O)OC[C@H]1O[C@H](CC2=CCCCC2)C=CC1=O`, the pIC50 was 7.10.
`O=C1C=C[C@@H](CO)O[C@@H]1CC1=CCCCC1` gave a pIC50 of 5.02.
Work on `CCCCC/C=C\C/C=C\C/C=C\C/C=C\CCCC(=O)OC[C@@H]1C=CC(=O)[C@@H](C2CCCC=C2C)O1` (some centres undefined) yielded a pIC50 of 5.30.
`CCCCC/C=C\C/C=C\C/C=C\C/C=C\CCCC(=O)OC[C@H]1O[C@H](CC2=CCCCC2)C=CC1=O` showed a pIC50 of 5.15.
With `CCCCCCCC/C=C\CCCCCCCC(=O)OC[C@H]1O[C@H](C2CCCC=C2C)C=CC1=O` (some centres undefined) the pIC50 was 7.30.
Work on `CC(=O)OC[C@H]1O[C@H](CC2=CCCCC2)C=CC1=O` yielded a pIC50 of 6.82.
For `CC/C=C\C/C=C\C/C=C\C/C=C\C/C=C\C/C=C\CCC(=O)OC[C@H]1O[C@H](C2CCCC=C2C)C=CC1=O` (some centres undefined), the pIC50 was 7.70.
With `O=C1C=C[C@@H](CC2=CCCCC2)O[C@@H]1CO` the pIC50 was 5.52.
Molecule `CCCCC/C=C\C/C=C\C/C=C\C/C=C\CCCC(=O)OC[C@H]1O[C@H](C2CCCC=C2C)C=CC1=O` (some centres undefined) has a pIC50 of 9.00.
`CC/C=C\C/C=C\C/C=C\C/C=C\C/C=C\C/C=C\CCC(=O)OC[C@@H]1C=CC(=O)[C@@H](CC2=CCCCC2)O1` gave a pIC50 of 4.52.
Work on `CCCCCCCC/C=C\CCCCCCCC(=O)OC[C@@H]1C=CC(=O)[C@@H](C2CCCC=C2C)O1` (some centres undefined) yielded a pIC50 of 4.46.
Molecule `CCCC(=O)OC[C@H]1O[C@H](CC2=CCCCC2)C=CC1=O` has a pIC50 of 7.05.
With `CCCCC/C=C\C/C=C\C/C=C\C/C=C\CCCC(=O)OC[C@@H]1C=CC(=O)[C@@H](CC2=CCCCC2)O1` the pIC50 was 4.46.
Work on `CC(=O)OC[C@H]1O[C@H](C2CCCC=C2C)C=CC1=O` (some centres undefined) yielded a pIC50 of 6.15.
For `CC/C=C\C/C=C\C/C=C\C/C=C\C/C=C\C/C=C\CCC(=O)OC[C@@H]1C=CC(=O)[C@@H](C2CCCC=C2C)O1` (some centres undefined), the pIC50 was 4.19.
